The structures appear in SMILES notation.

In the case of `CN(C)C=Nc1n[nH]c2ncnc(Nc3cccc(Cl)c3)c12`, the melting point was in the range of 243 to 245 °C.

Compound `CN1C(=O)C(C)(C)C(=O)N(C)c2cc([N+](=O)[O-])ccc21` registered a melting point of 224 to 225 °C.

`CCOC(=O)C1=C(C)NC(N=CN(C)C)=C(C(=O)OCC)C1c1cccc([N+](=O)[O-])c1` (stereo unspecified) returned a melting point of 150 °C.

`O=C1CCSc2c(O)cccc21`: the melting point fell in the range of 225 to 232 °C.

In turn, `NC(=O)c1nc(-c2cccc(O)c2)nc2c1[nH]c(=O)n2C1CCCC1` returned a melting point of 360 to 361 °C.

In the case of `OC1COC(c2ccccc2)OC1` (stereo unspecified), the melting point fell in the range of 83 to 84 °C.

In the case of `COc1ccc(N2CCN(c3c(C)c(C)c4c(c3C)C(CN3CCCC3)C(C)(C)O4)CC2)cc1` (stereo unspecified), the melting point was in the range of 94 to 96 °C.

As for `CCOC(=O)c1cnc(C)nc1NCc1ccc(-c2ccccc2-c2nnn[nH]2)cc1`, the melting point lay in the range of 121 to 123 °C.

In the case of `ON=C1C2CCC1CN(Cc1ccccc1)C2`, the melting point fell in the range of 92 to 95 °C.

Regarding `CCNc1nc(OC)c(C(=O)NCC2CCCN2CC)nc1Cl` (stereo unspecified), the melting point lay in the range of 167 to 169 °C.

In the case of `O=C1C=C(O[C@@H]2c3cc([N+](=O)[O-])ccc3OC(CF)(CF)[C@H]2O)CC1` (relative stereo), the melting point is 206 to 208 °C.

Turning to `CCNCc1cnc2c(C)c(NC(=O)c3ccc(OC[C@@H]4CCCO4)cc3)ccc2c1`, the melting point lay within 149 to 151 °C.

Regarding `COC(=O)C[C@H]1C[C@@H](CCc2c(-c3ccc(F)cc3)c(-c3ccccc3)c(C(=O)NCc3ccccc3)n2C(C)C)OC(C)(C)O1`, the melting point was in the range of 65 to 67 °C.

`CN1CC(Cn2cnnn2)CC2c3cccc4[nH]cc(c34)CC21` (stereo unspecified) showed a melting point of 206 to 209 °C.

Regarding `OCc1cc2cc3c(cc2nc1I)OCCO3`, the melting point was in the range of 178 to 180 °C.

`CC(C)Oc1cc(COc2cc(CCC(=O)O)n(-c3ccccc3)n2)cc(COc2ccc(Cl)cc2Cl)c1` registered a melting point of 108 to 110 °C.

For the compound `COc1cc(CNC(=O)c2nc3cnn(CCOc4ccc(C(=O)O)cc4)c3c(=O)[nH]2)ccc1F`, the melting point lay in the range of 228 to 230 °C.

The compound `C#Cc1c(C#N)nn(-c2c(Cl)cc(C(F)(F)F)cc2Cl)c1Cl` had a melting point of 109 to 110 °C.

Consider `COCc1nnc(N)s1`, for which the melting point lay within 177 to 179 °C.

Take `O=c1c(Cl)c(Cl)sn1C1CCCCC1`: the melting point was in the range of 114 to 116 °C.

Turning to `Cc1ccc2c(N3CCc4ccc(Cl)cc43)ncnc2c1`, the melting point came to 265 °C.

The compound `O=C(CSc1n[nH]c(-c2ccco2)n1)C12CC3CC(CC(C3)C1)C2` gave a melting point of 177 to 178 °C.

As to `O=C(O)CCNC(=O)NCC(CS)c1ccccc1` (stereo unspecified), the melting point lay within 88 to 90 °C.

`CN1CC(CN)Oc2c(-c3ccccc3C(F)(F)F)cccc21` (stereo unspecified): the melting point turned out to be 90 °C.

`CC1(C(O)CBr)COc2cc(Cl)ccc2O1` (stereo unspecified) yielded a melting point of 133 to 135 °C.

For the compound `Cc1ccc(S(=O)(=O)Nc2ccc(SC#N)cc2[N+](=O)[O-])cc1`, the melting point lay within 121 to 122 °C.

In turn, `Cc1cc2c(-c3cn(C)c(C(F)(F)F)cc3=O)c(F)cc(Cl)c2o1` came in with a melting point of 208 to 211 °C.

Compound `CC(=O)N1CCN(c2nc(N)ccc2[N+](=O)[O-])CC1` came in with a melting point of 202 to 203 °C.

The compound `COc1ccc(N(C)C(=O)CN(C(=O)CN2C(=O)c3ccccc3C2=O)c2ccccc2)cc1` gave a melting point of 162 °C.

As to `CN(C)CCCCCCCOc1ccc2oc(-c3ccccc3)cc(=O)c2c1`, the melting point was 90 to 91 °C.

In the case of `CCCn1c(=O)c(C#N)c(N2CCN(C(=O)c3cccs3)CC2)c2cccnc21`, the melting point was 196 °C.

In the case of `Cc1csc(N2CCN(Cc3ccc(C(F)(F)F)cc3)C2=O)n1`, the melting point lay in the range of 102 to 103 °C.

For the compound `O=C(O)c1ccc(C(=O)NS(=O)(=O)c2ccc(Cl)cc2)cc1`, the melting point lay in the range of 285 to 287 °C.

With `CC(=O)c1c[nH]c2cc(O)ccc12`, the melting point is 135 to 140 °C.

`Cc1cc(CCCOc2ccc(-c3noc(C(F)(F)F)n3)cc2)on1` displayed a melting point of 68 to 69 °C.

On to `CCOC(=O)c1cn(C2CC2)c2nc(N3CC(C)C(N)C3)c(F)cc2c1=O` (stereo unspecified), for which the melting point lay within 148 to 150 °C.

As a reminder, the melting point is the temperature of the solid-liquid transition.

The values are drawn from a melting point compilation (Tetko et al.; mined from patent text by program, amines drawn as free bases though some values may be those of a salt).
